Test results taken from patent US6025356A, “Disubstituted trans-3,4,4a,5,6,10b-hexahydro-2H-naphth[1,2-b]-1,4-oxazines” (Adir et Compagnie, priority 1997, dated 2000).

Legend:
[1] = target: T1, human dopamine D2 receptor (Homo sapiens, UniProt P14416); test: human D2 and D3 receptor binding study (D2)
T1 construct: expressed in transfected cells
Protocol: (§1) A. In vitro: human D2 and D3 receptor binding study
(§2) CHO (Chinese Hamster Ovary) cells are transfected in a stable manner with the gene encoding the human dopamine D2 or D3 receptor in accordance with methods known from the literature. The native cells are deficient in the enzyme DHFR (DiHydroFolate Reductase). […] The transfections are carried out using Lipofectin (Gibco). The CHO cells co-transfected with the human D2 receptor and the phleomycin resistance gene are selected for their resistance to the presence of that antibiotic in the culture medium. The cells transfected with the human D3 receptor are selected in the presence of methotrexate in a medium containing no hypoxanthine/thymidine. The compositions of the culture media used are: for CHO-D2 : DMEM (Dulbecco's Modified Eagle Medium) supplemented with 10% foetal calf serum and hypoxanthine/thymidine; and for CHO-D3 : DMEM supplemented with 10% dialysed foetal calf serum. The cells are harvested at confluence and the membranes are then prepared.
(§3) After a few minutes in the presence of 0.2% trypsin, the cells are recovered and centrifuged at 2,000 g for 5 minutes. […]
(§4) The ranges of concentration of each compound include at least seven points determined in triplicate, each experiment being repeated at least twice.
(§5) The recovered filters are then counted using a gamma counter. […]

[2] = system: dopaminergic cells in the ventral tegmentum area of the rat; test: Test recording the unitary extracellular electrical activity in the ventral tegmentum area of the rat; type: in vivo; settings: n = 4
Protocol: 1. Test recording the unitary extracellular electrical activity in the ventral tegmentum area of the rat
The administration of a dopaminergic agonist decreases the discharge frequency of neurons in a dose-dependent manner. That effect is reversed by haloperidol, a dopaminergic antagonist.
The rats are anaesthetised with chloral hydrate (400 mg/kg, i.p.) and placed in a stereotactic apparatus (Unimecanique, France) after catheterisation of the femoral vein. The level of anaesthesia is maintained by i.p. administration of chloral hydrate every hour; the rectal temperature is maintained at 37±1° C. by means of a thermostatically controlled heated cover. A tungsten microelectrode (10 M.OMEGA., 1 μm) is inserted using an electronic microinsertion device (Unimecanique, France) into the ventral tegmentum area (AP: -5.5/bregma; L: 0.7; H: 7.0-8.5/dura; Paxinos and Watson atlas, 1986). The potentials of the dopaminergic cells are recognised by their morphology (triphasic potentials+/-/+, of a duration greater than 3 msec), their discharge rhythm, whether regular or in bursts of decreasing amplitude, and their discharge frequency, which is from 2 to 8 Hz. A single cell per animal is used for the recording.
After a period≥5 min. (basal activity) and a first injection of carrier (distilled water to which a few drops of dilute lactic acid have been added; pH adjusted to 5 with 1N NaOH), the products of the invention are administered intravenously in cumulatively increasing doses at intervals of 2-3 min..
Acquisition of the data is effected by the software Spike2 (Cambridge Electronic Design, England). The discharge frequency is measured over one minute at the maximum variation between each injection and is expressed as a percentage variation in relation to the basal activity (average of the 5 minutes preceding the first treatment) defined as 100%. The effect of the products is evaluated statistically by a variance analysis over repeated measurements, followed by a Newman-Keuls test for comparing the effects of different doses with the effect of the carrier.

[3] = "Rotations" induced by dopaminergic agonists in rats having a unilateral lesion of the Substantia nigra; type: in vivo, male Wistar rats; settings: Rattus norvegicus, sc; read-out: dose from which active in the rotation test
[4] = target: T2, human dopamine D3 receptor (Homo sapiens, UniProt P35462); test: human D2 and D3 receptor binding study (D3)
T2 construct: expressed in transfected cells
T2 sequence (P35462 whole entry): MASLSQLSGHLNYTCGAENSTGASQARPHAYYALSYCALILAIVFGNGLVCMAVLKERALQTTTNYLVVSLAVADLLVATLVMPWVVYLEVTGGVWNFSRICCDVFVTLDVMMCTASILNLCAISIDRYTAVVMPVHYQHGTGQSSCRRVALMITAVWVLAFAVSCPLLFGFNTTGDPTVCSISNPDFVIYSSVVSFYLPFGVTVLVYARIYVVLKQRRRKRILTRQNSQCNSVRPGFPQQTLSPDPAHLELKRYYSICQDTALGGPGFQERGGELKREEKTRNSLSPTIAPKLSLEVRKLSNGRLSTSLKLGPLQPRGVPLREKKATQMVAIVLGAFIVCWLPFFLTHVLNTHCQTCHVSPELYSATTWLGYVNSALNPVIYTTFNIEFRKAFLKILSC
Protocol: as §1, §2, §3, §4, §5

Forced swimming test = type: in vivo, rat
Description: The forced swimming test (Porsolt R. et al, Eur. J. Pharmacol., 1978, 47, 379-91) is a behavioural test which comprises inducing a state of despair in the rat by placing the naive animal in an enclosure full of water, from which it cannot escape, for a period of fifteen minutes. For the first five to ten minutes the rat struggles vigorously, but finally adopts an immobile posture during the last part of the test. Placed in the same enclosure the next day, the animal remains immobile for the majority of the test (5 minutes' duration). The anti-depressants reduce the duration of immobility of the rat during the test.
The experiment is carried out over two days, with a 24-hour interval, on rats of an average weight of 170 g, housed the day before in individual cages, with free access to food and drink.
On the first day, each rat is placed for fifteen minutes in a glass cylinder (20 cm diameter ×40 cm high) filled to a height of 15 cm with water maintained at 25° C. On the second day, the animal is placed in a cylinder again for a period of five minutes; the total period of immobility (in seconds) of the rat is measured. The product or solvent is administered to the animal thirty minutes before the beginning of the test.

[5] = [125I]-iodosulpride, CHO membranes, 30 min at 30° C., pKi = -log Ki

T1 sequence (P14416 whole entry): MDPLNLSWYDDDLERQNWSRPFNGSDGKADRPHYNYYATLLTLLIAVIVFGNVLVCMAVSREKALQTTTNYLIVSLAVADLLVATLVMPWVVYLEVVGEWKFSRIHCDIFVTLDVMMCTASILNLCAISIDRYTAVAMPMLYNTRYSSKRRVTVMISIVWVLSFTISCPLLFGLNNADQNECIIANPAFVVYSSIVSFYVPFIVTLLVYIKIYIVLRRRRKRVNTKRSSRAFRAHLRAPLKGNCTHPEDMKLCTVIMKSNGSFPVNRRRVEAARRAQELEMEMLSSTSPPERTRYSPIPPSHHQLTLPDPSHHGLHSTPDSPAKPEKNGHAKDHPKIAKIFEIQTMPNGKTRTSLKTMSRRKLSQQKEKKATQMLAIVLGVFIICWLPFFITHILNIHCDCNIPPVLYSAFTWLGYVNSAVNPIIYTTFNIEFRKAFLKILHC

## CCCN1CCO[C@@H]2c3cc(C(N)=O)ccc3CC[C@H]21 (single isomer, unassigned) [Example 3, (+)-Trans-3,4,4a,5,6,10b-hexahydro-9-carbamoyl-4-propyl-2H-naphtho[1,2-b]-1,4-oxazine]
[1]; [5]
  Ki: 316 nM
[2]; 0.5 μg/kg i.v., cumulative doses, mean ± standard error of the mean
  discharge frequency, percentage in relation to basal activity (100%): 80.4 ± 5.54%
[2]; 1 μg/kg i.v., cumulative doses, mean ± standard error of the mean, p ≤ 0.05
  discharge frequency, percentage in relation to basal activity (100%): 56.6 ± 11.4%
[2]; 2 μg/kg i.v., cumulative doses, mean ± standard error of the mean, p ≤ 0.05
  discharge frequency, percentage in relation to basal activity (100%): 25.0 ± 8.68%
[2]; 4 μg/kg i.v., cumulative doses, mean ± standard error of the mean, p ≤ 0.05
  discharge frequency, percentage in relation to basal activity (100%): 1.56 ± 1.12%
[2]; 8 μg/kg i.v., cumulative doses, p ≤ 0.05
  discharge frequency, percentage in relation to basal activity (100%): 0.00%
[3]
  minimal effective dose: 0.04 mg/kg
[4]; [5]
  Ki: 10 nM
Forced swimming test; Rattus norvegicus, sc, read-out: ID50 (period of immobility)
  ED50: 0.41 mg/kg
Forced swimming test; s.c.
  period of immobility (result in words): reduces the period of immobility of the animal in a dose-dependent manner

## O=C(CCCN1CCC(O)(c2ccc(Cl)cc2)CC1)c1ccc(F)cc1 [haloperidol, reference compound]
[2]; haloperidol 16 μg/kg i.v., reversal after cumulative doses of Example 3, mean ± standard error of the mean
  discharge frequency, percentage in relation to basal activity (100%): 110.5 ± 14.9%

## [^125 I]-iodosulpride [[125I]-iodosulpride, reference compound]
[1]; radioligand, read-out: Kd (dissociation constant) for the human D2 receptor
  Kd: 0.5 nM
[4]; radioligand, read-out: Kd (dissociation constant) for the human D3 receptor
  Kd: 1.31 nM
